Source: patent US20210196714A1, “COMPOSITIONS AND METHODS FOR TREATING DISORDERS CHARACTERIZED WITH ABERRANT RAS/MAPK SIGNALING” (Duke University, priority 2018, published 2021)
Entries after “also recorded” stand apart in the source; their conditions may differ.

Legend:
[1] = test system: zebrafish kmt2d morphants; experiment: Rescue of convergent-extension (CE) phenotype in kmt2d morphants; assay type: in vivo; settings: 100 nM; for rescue of CE defects, repeated experiments: repeated four times by two investigators; for proportion of embryos showing CE defects vs vehicle (DMSO): primary screen, kmt2d-MO, 8-10 somite stage
Experimental: FIG. 1: In vivo screen using BRAF/MEK/ERK inhibitors. (a) Flow chart of the experimental design. We started the screening with 29 compounds (27 active BRAF/MEK/ERK inhibitors, and 2 negative controls). 26 compounds passed the solubility test and 24 of those passed the toxicity test. For the primary screen, 24 compounds were assessed for their ability to rescue the convergent-extension (CE) phenotype of zebrafish kmt2d morphants, followed by rescue tests of additional phenotypes (jaw and brain) within the kmt2d morphant, or CE of additional genetic KS models. (b) Toxicity results. Twenty embryos at the 8-cell stage were incubated in egg water containing 100 nM, 1 μM, and 10 μM of the 26 compounds. After 24 hours, larvae were scored for toxicity. Black bar: death; grey bar: abnormal morphology; white bar: nontoxic. (c) Embryos were injected with kmt2d-MO at the 2-4 cell stage and soaked in egg water containing 100 nM of each compound at the 8-cell stage. After 24 hours, larvae were scored for CE. […] The efficacy of each compound was determined by a chi-square test in which Class I and Class II were considered together. Note that the compounds were tested in two groups (compounds 1-19 and compounds 20-29), each with its own set of controls.
This library was screened against validated transient suppression reagent for kmt2d. Experiments injected kmt2d-morpholino (MO) into one- to two-cell-stage embryos and soaked them in egg water containing 100 nM of each compound approximately one hour after injection (eight-cell stage).
Morpholinos (MO) were obtained from Gene Tools (Gene Tools, LLC, Philomath, Oreg., USA) and have been described previously (see, Bogershausen, N. et al. J Clin Invest 125, 3585-99 (2015)); kmt2d-MO: 5′-[…]-3′(SEQ ID NO: 1) (5 ng); kdm6a-MO: 5′-[…] (SEQ ID NO: 2) (10 ng). kmt2d-MO and kdm6a-MO was injected into wild type (WT) Ekkwill (EK) zebrafish embryos obtained from natural matings at the 1-4 cell stage. CRISPR target sequences (rap1a: 5′-[…]-3′ (SEQ ID NO: 3) [120 pg], rap1b: 5′-[…]-3′ (SEQ ID NO: 4) [120 pg] (see, Bogershausen, N. et al. J Clin Invest 125, 3585-99 (2015)), and kmt2d: 5′-[…] (SEQ ID NO: 5) [50 pg]) were identified by crispr.mit.edu and cloned into pT7-gRNA (Addgene, Cambridge, USA) following the protocol described in http://www.addgene.org/crispr/Chen/. Guide (g)RNAs were synthesized using the T7 MEGAshortscript kit (ThermoFisher Scientific). […]
For convergence and extension (CE) phenotyping, embryos were scored as described (see, Leitch, C. C. et al. Nat Genet 40, 443-8 (2008)) at the 8-10 somite stage, and images were captured using an AZ100 microscope and NIS Elements software (Nikon). […] The distance between Meckel's (MK) and ceratohyal (CH) cartilages was measured on ventral bright field images with Image J (NIH). […]

rap1-CRISPR embryos = experiment: Jaw defect (MK-CH distance) in rap1-CRISPR embryos; assay type: in vivo, zebrafish; settings: rap1 F0 CRISPR mutant, 100 nM, 5 dpf
Experimental: FIG. 4: Compound 8 ameliorates the CE and jaw defects caused by loss of rap/and kdm6a. (a) gRNA targeting both zebrafish rap1a and rap1b were injected into embryos at the 1-cell stage with Cas9 protein. Larvae were incubated with compound 8 (100 nM) at the 8-cell stage and scored for micrognathia. 5 dpf larvae were stained with Alcian blue to assess the layout of the jaw cartilage. In comparison to control embryos (top), rap1-CRISPR embryos have smaller jaws. […] (b) Quantitative measurement of the distance between MK and CH cartilages. (c) Larvae were scored for CE (n>30 for each concentration). (d) 5 dpf embryos were stained with Alcian blue to assess the layout of jaw cartilage. […] (e) Quantitative measurement of the distance between MK and CH cartilages. *p<0.05; ***p<0.001. […]
For convergence and extension (CE) phenotyping, embryos were scored as described (see, Leitch, C. C. et al. Nat Genet 40, 443-8 (2008)) at the 8-10 somite stage, and images were captured using an AZ100 microscope and NIS Elements software (Nikon). […] The distance between Meckel's (MK) and ceratohyal (CH) cartilages was measured on ventral bright field images with Image J (NIH). […] Fluorescence signal on embryo heads was imaged with the Nikon AZ100 microscope and DS-Qi1MC digital camera using […] Z-stacks to generate extended depth of focus images. Cell numbers were quantified using the ImageJ ICTN plugin (NIH). […]

Structure (SMILES)	rescue of CE defects, repeated experiments [1]	proportion of embryos showing CE defects vs vehicle (DMSO) [1]	jaw length / MK-CH distance (rap1-CRISPR embryos)
CC[C@@H](CO)Nc1ncc(C)c(-c2c[nH]c(C(=O)N[C@H](CO)c3cccc(Cl)c3)c2)n1 [Compound 2, N-((S)-1-(3-chlorophenyl)-2-hydroxyethyl)-4-(2-(((S)-1-hydroxybutan-2-yl)amino)-5-methylpyrimidin-4-yl)-1H-pyrrole-2-carboxamide]	rescue CE defects; also recorded: consistent and significant rescue	decreased the proportion of embryos showing CE defects	can be ameliorated; also recorded: restored significantly the jaw length of morphants and mutants to nearly wild type levels
CC(C)c1nc(-c2cccc(NS(=O)(=O)c3c(F)cccc3F)c2F)c(-c2ccnc(N)n2)s1 [Compound 8, desmethyl-Dabrafenib]	rescue CE defects; also recorded: consistent and significant rescue	decreased the proportion of embryos showing CE defects	can be ameliorated; also recorded: restored significantly the jaw length of morphants and mutants to nearly wild type levels
